Results reported in patent US20240115557A1, “INHIBITORS OF RNA-GUIDED NUCLEASES AND USES THEREOF” (The Brigham and Women's Hospital, Inc., priority 2022, published 2024).

How the values were obtained:
SpCas9 [1] = target: T1, SpCas9 (Streptococcus pyogenes serotype M1, UniProt Q99ZW2); test: Strand displacement assay (SDA) / cumulative activity assay (CAA), SpCas9 primary screen; type: biochemical; conditions: Primary Screen (150 min); for Normalized Z score 1: replicate 1; for Normalized Z score 2: replicate 2
Procedure: Screening of inhibitors was via a high throughput pipeline, as depicted in FIG. 29. The first screening is via a strand displacement assay (SDA) for detecting nuclease activity (FIG. 27A, 28A). The Cpf1/Cas12 protein/DNA complex has a different structure from Cas9 and requires optimization of the potential fluorophore attachment sites (Yamano, T et al., Cell, 2016). (FIG. 28A). Next screened compounds are evaluated in an eGFP cell assay, and for eGFP dose. Those compounds are further narrowed via a HiBiT assay and finally evaluated in the surveyor assay. SAR evaluations are performed to arrive at lead compounds for further evaluations and variations. General methodology for the assays is as described in at [0253]-[0301] of U.S. Patent Application 62/831,143 filed Apr. 8, 2019, incorporated herein by reference.
The 3′ end of the displacing single-stranded DNA was labeled with a quencher. Following nuclease cleavage of the substrate, the 3′-labeled quenching DNA strand (present in excess) could outcompete the weakly held 3′ strand to anneal to the 5′ strand. The resulting FRET fluorescence quenching provides an optical readout for nuclease activity (FIG. 62A).
Typically, SpCas9: gRNA (1:1.2 ratio) RNP was pre-formed at 1 μM in Cas9 assay buffer (20 mM Tris-HCl, pH=7.5, 100 mM KCl, 5 mM MgCl2) for 5 min at 4° C. before diluting to 10 nM in Cas9 assay buffer (2× final concentration). 25 μL of the Cas9 2× stock was manually dispensed to a black 384-well plate (Corning 3575) using electronic pipette. […] Following this, pre-annealed Alexa-Fluor 647 labeled substrate and quencher were also diluted to 1 nM and 5 nM in Cas9 assay buffer, respectively (2× stock solution). Next, 25 μL of the substrate/quencher solution was added manually to each well of the Cas9-containing 384-well plates using an electronic pipette and was incubated at 37° C. for 2.5 h. Fluorescent signals were read with the microplate reader set to read Alexa-Fluor 647 fluorescence. Assay was performed similarly with SaCas9 and FnCas12a using the respective enzyme, gRNA, substrate, and quencher oligos. […]

SpCas9 [2] = target: T1, SpCas9; test: eGFP disruption assay, SpCas9, U2OS.eGFP.PEST cells; type: cell-based; conditions: for Normalized Z rep1 / Z score Rep1: replicate 1; for SpCas9 eGFP disruption Rep1: replicate 1, raw readout; for Normalized Z rep2 / Z socre Rep2: replicate 2; for SpCas9 eGFP disruption Rep2: replicate 2, raw readout
Description: In some embodiments, the secondary assay may be an EGFP disruption assay. In such assay, a quantitative human cell-based reporter assay that enables rapid quantitation of targeted nuclease activities is used to characterize off-target cleavage of Cas9-based RNA guided endonucleases. In this assay, the activities of nucleases targeted to a single integrated EGFP reporter gene can be quantified by assessing loss of fluorescence signal in human U2OS.EGFP cells caused by inactivating frameshift insertion/deletion (indel) mutations introduced by error prone non-homologous end-joining (NHEJ) repair of nuclease-induced double-stranded breaks (DSBs).
In one protocol, U2OS.EGFP cells harboring a single integrated copy of an EGFP-PEST fusion gene are cultured (see e.g., Reyon et al., Nat Biotech 30, 460-465 (2012), which is herein incorporated by reference in its entirety). For transfections, 200,000 cells are Nucleofected with gRNA expression plasmid and pJDS246 together with 30 ng of a Td-tomato-encoding plasmid using the SE Cell Line 4D-Nucleofector™ X Kit (Lonza) according to the manufacturer's protocol. Cells are analyzed 2 days post-transfection using a BD LSRII flow cytometer. Transfections for optimizing gRNA/Cas9 plasmid concentration are performed in triplicate and all other transfections are performed in duplicate. PCR amplification is used for sequence verification of endogenous human genomic sites. PCR reactions are performed using Phusion Hot Start II high-fidelity DNA polymerase (NEB). Loci are amplified using touchdown PCR (98° C., 10 s; 72-62° C., −1° C./cycle, 15s; 72° C., 30 s] 10 cycles, [98° C., 10s; 62° C., 15s; 72° C., 30 s] 25 cycles). Alternatively, PCR for other targets is performed with 35 cycles at a constant annealing temperature of 68° C. or 72° C., and 3% DMSO or IM betaine, if necessary. PCR products are analyzed on a QIAXCEL capillary electrophoresis system to verify both size and purity. Validated products are treated with ExoSap-IT (Affymetrix) and sequenced by the Sanger method (MGH DNA Sequencing Core) to verify each target site.
Primary and secondary screening. The primary screen assayed a selection of unique chemical scaffolds derived from commercially available compounds and known bioactive molecular libraries (Table 7). Auto-fluorescent compounds were removed by a counter screen. Overall, the CAA was used to assay 122,409 small molecules with over 2,500 unique chemical scaffolds (FIG. 64F, Table 7). Of these compounds, 547 were selected as hits (Z score >3 in both replicates) for testing in orthogonal cell-based secondary assays. Hits were tested in duplicate in an eGFP disruption assay, wherein U2OS.eGFP.PEST cells^33 transfected with SpCas9 plasmid and eGFP-targeting gRNA plasmid were incubated with 20 μM of the compounds. In this assay, any compound that inhibited SpCas9 would rescue the loss of eGFP fluorescence. Here, toxic and auto-fluorescent compounds with a high GFP signal in cells were removed as false positives. […] Next, Applicants tested the 15 compounds in a luminescence-based gain-of-signal HiBiT knock-in assay, which involves SpCas9-mediated homology-directed tagging of GAPDH with a short peptide that luminesces upon complementation with a subunit derived from nanoluciferase.^34 Complementarily, the eGFP-disruption assay is fluorescence-based and involves error-prone DNA repair. As a counter-screen to remove false positives caused by cell death (viability <80%), the cell viability was measured after incubation.
For SAR studies and dose-response studies, 300,000 U2OS.eGFP.PEST cells were nucleofected with 300 ng of SpCas9 plasmid (Addgene #43861) and 30 ng of eGFP-targeting gRNA plasmid (Addgene #47511)^33 using SE Cell Line 4D-Nucleofector X Kit (Lonza) following the pulse program of DN-100. For RNP-based genome editing, 10 pmol of SpCas9 (GenScript #Z03385) and 12 pmol of gRNA were mixed and incubated for 5 min. […]

T1 sequence (Q99ZW2 whole entry): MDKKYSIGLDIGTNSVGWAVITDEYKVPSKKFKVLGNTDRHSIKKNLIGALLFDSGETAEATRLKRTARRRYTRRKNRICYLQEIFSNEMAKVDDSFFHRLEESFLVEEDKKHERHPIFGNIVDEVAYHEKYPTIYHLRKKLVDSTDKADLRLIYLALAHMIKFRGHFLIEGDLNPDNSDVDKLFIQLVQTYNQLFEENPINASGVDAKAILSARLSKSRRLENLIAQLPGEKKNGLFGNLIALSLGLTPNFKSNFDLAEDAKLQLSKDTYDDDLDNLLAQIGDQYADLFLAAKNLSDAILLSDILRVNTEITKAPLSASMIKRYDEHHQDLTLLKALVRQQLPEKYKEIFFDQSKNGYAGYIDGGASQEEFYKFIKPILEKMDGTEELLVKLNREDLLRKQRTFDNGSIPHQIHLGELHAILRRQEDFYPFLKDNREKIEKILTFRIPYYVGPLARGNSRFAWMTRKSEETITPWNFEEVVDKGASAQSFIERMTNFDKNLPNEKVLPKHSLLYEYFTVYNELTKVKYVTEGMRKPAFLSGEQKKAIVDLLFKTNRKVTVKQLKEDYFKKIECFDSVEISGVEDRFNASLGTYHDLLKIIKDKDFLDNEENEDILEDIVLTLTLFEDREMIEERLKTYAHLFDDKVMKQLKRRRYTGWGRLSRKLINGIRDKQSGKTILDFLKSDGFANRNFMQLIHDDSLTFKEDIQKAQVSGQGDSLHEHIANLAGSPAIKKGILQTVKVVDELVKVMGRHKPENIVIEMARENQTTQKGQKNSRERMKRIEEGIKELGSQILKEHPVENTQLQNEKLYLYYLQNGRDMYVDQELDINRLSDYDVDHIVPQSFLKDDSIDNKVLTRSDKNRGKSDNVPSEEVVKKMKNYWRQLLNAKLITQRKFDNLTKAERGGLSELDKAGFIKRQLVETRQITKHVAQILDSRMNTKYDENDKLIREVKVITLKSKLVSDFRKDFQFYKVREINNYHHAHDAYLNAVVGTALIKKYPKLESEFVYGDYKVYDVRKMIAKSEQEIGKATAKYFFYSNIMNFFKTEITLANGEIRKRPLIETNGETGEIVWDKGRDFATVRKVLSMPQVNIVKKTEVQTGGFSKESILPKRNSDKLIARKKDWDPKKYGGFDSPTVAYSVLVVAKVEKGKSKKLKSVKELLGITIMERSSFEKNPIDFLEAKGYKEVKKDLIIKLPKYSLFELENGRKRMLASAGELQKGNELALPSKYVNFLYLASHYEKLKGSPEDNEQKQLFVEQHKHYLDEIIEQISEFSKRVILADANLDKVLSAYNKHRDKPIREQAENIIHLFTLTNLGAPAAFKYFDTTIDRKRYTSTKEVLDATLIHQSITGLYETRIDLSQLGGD

Row | Structure (SMILES) | Average Normalized Z score (SpCas9 [1]) | avg z score primary (SpCas9 [1]) | Normalized Z score 1 (SpCas9 [1]) | Normalized Z score 2 (SpCas9 [1]) | Normalized Z rep1 (SpCas9 [2]) | Z score Rep1 (SpCas9 [2]) | SpCas9 eGFP disruption Rep1 (SpCas9 [2]) | Normalized Z rep2 (SpCas9 [2]) | Z socre Rep2 (SpCas9 [2]) | SpCas9 eGFP disruption Rep2 (SpCas9 [2]) | Average Normalized Z score (SpCas9 [1]; average of replicates)
1 | Cn1nc(-c2ccccc2F)c2cc(C(=O)Oc3ccc4cnccc4c3)sc21 [Compound G784-0099] | 0.07 | 7.48 | 0.06 | 0.09 | −0.35 | −3.62 | 69.21 | 0.01 | 0.21 | 76.066 | 
2 | O=C(NCc1ccc2c(c1)OCO2)c1cccc(Oc2cc(-c3ccccc3)ncn2)c1 [Compound L663-1076] | 0.40 | 7.72 | 0.38 | 0.41 | −0.11 | −0.69 | 74.045 | −0.01 | −0.12 | 76.06 | 
3 | COc1ccc(-c2cc3c(C)nc(N)nc3n(C3CCC(OCCO)CC3)c2=O)cn1 (stereo not shown) [Compound S2743] |  | 8.74 | 0.45 | 0.44 | −0.75 | −4.92 | 61.679 | −0.89 | −8.50 | 59.461 | 0.45
4 | CC(C)CNC(=O)c1ccc(Oc2ccnc(-c3ccc(F)cc3)n2)cc1 [Compound L662-0597] | 0.37 | 7.15 | 0.36 | 0.37 | 0.00 | 0.02 | 76.108 | −0.15 | −1.39 | 73.535 | 
5 | N=C1N=CC(=NNc2cc(C(=O)O)ccc2Cl)S1 [Compound T5253378] |  | 4.20 | 0.08 | 0.07 |  |  |  |  |  |  | 0.07
6 | O=C([O-])C(O)Cc1ccc(O)c(O)c1.[Na+] (stereo not shown) [Compound S2401] |  | 4.93 | 0.22 | 0.29 |  |  |  |  |  |  | 0.25
7 | Cc1ccc(Cl)cc1NC(=O)C1=NCCN1 [Compound T0519-9012] |  | 5.06 | 0.08 | 0.12 |  |  |  |  |  |  | 0.10
8 | O=C(O)CSc1nnc(NC2CCCCC2)s1 [Compound T5211003] |  | 4.50 | 0.05 | 0.05 |  |  |  |  |  |  | 0.05
9 | O=C(COC(=O)c1cc(O)c(O)c(O)c1)NC1CCCc2ccccc21 (stereo not shown) [Compound T0515-9025] |  | 4.00 | 0.26 | 0.23 |  |  |  |  |  |  | 0.25
10 | O=C(N/N=C/c1ccc(O)c(O)c1O)c1cccc(S(=O)(=O)Nc2ccccc2Cl)c1 [Compound T0506-5702] |  | 4.48 | 0.07 | 0.07 |  |  |  |  |  |  | 0.07
11 | CCCN(CCC)C1=CC(=O)C(C)=C(C)C1=O [Compound T0502-3042] |  | 4.92 | 0.32 | 0.30 |  |  |  |  |  |  | 0.31
12 | COc1ccc(C(=O)Oc2cc(-c3ccc(OC)c(OC)c3)cc(=O)c3c(C)oc(C)c23)cc1 [Compound D132-0053] | 0.20 | 3.32 | 0.21 | 0.19 |  |  |  |  |  |  | 
13 | CCOC(=O)C1CCCN(Cn2nnn(-c3ccc(OC)cc3)c2=S)C1 (stereo not shown) [Compound T0513-0218] |  | 3.45 | 0.04 | 0.03 |  |  |  |  |  |  | 0.04
14 | Oc1c(C(c2cccs2)N2CCCCC2)ccc2cccnc12 (stereo not shown) [Compound T0515-1927] |  | 10.34 | 0.70 | 0.67 |  |  |  |  |  |  | 0.68
15 | Cc1sc2nc3n(c(=O)c2c1-c1ccccc1)CCC3 [Compound T0520-0462] |  | 4.18 | 0.04 | 0.05 |  |  |  |  |  |  | 0.04
16 | O=C(CSc1nnc2ccccn12)Nc1cc(C(=O)O)cc(C(=O)O)c1 [Compound T0513-0201] |  | 11.30 | 0.10 | 0.13 |  |  |  |  |  |  | 0.11
17 | Cc1ccc(C(=O)n2ncn(C)c2=S)cc1 [Compound T0510-3476] |  | 28.56 | 0.39 | 0.42 |  |  |  |  |  |  | 0.41
18 | O=C(CCC(=O)c1ccc(F)cc1)OC1CCOC1=O (stereo not shown) [Compound T0512-8635] |  | 4.05 | 0.04 | 0.04 |  |  |  |  |  |  | 0.04
19 | CN1CCN(c2ccc(CNC(=O)Cn3ccc4c(SCc5ccccc5)nccc43)cc2)CC1 [Compound M056-0617] |  | 4.82 | 0.05 | 0.07 |  |  |  |  |  |  | 0.06
20 | O=C(O)c1cccc(NCC2SC(=S)NC2=O)c1 (stereo not shown) [Compound T0514-3358] |  | 4.79 | 0.32 | 0.27 |  |  |  |  |  |  | 0.30
21 | CCCCC(=O)Nc1ccc(N2CCC(C(N)=O)(N3CCCCC3)CC2)c(C(=O)O)c1 [Compound G889-0171] | 0.07 | 3.38 | 0.07 | 0.07 |  |  |  |  |  |  | 
22 | O=C(Nc1nnc(C2CC2)s1)c1ccc2ncsc2c1 [Compound T0514-1693] |  | 5.62 | 0.07 | 0.07 |  |  |  |  |  |  | 0.07
